# Measurements taken from PubChem BioAssay AID330 (DTP/NCI, 2004).
# Several values for one entry are separate records, joined by “and”; a condition that tells them apart may be missing. Equal values may be shown once. Inconclusive results and toxic doses are left out.
# Test system: P388 leukemia ip, CD2F1 mice, survival T/C
# Assay: NCI In Vivo Anticancer Drug Screen. Data for tumor model P388 Leukemia (intraperitoneal) in CD2F1 (CDF1) mice
# Conditions: endpoint: median survival time, higher = longer survival
# Summary of the method: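 Mice carrying the transplanted tumor received test compound or vehicle. Survival was recorded in each group, and the value is the treated-group measurement divided by that of the vehicle-treated control group.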
# [1] = dose: 50.0 mg/kg/injection, schedule: Q01DX005 (ip), vehicle: saline with Tween-80
# [2] = dose: 100.0 mg/kg/injection, schedule: Q01DX005 (ip), vehicle: saline with Tween-80
# [3] = dose: 200.0 mg/kg/injection, schedule: Q01DX005 (ip), vehicle: saline with Tween-80
# [4] = dose: 60.0 mg/kg/injection, schedule: Q01DX005 (ip), vehicle: saline with Tween-80
# [5] = dose: 120.0 mg/kg/injection, schedule: Q01DX005 (ip), vehicle: saline with Tween-80
# [6] = dose: 240.0 mg/kg/injection, schedule: Q01DX005 (ip), vehicle: saline with Tween-80
smiles,measurement,setting,value
CCOC(=O)c1cn2ccccc2c(C(=O)c2cccnc2)c1=N,T/C,"dose: 100.0 mg/kg/injection, schedule: Q04DX003 (ip), vehicle: saline",91 % of control
same,T/C,"dose: 200.0 mg/kg/injection, schedule: Q04DX003 (ip), vehicle: saline",96 % of control
same,T/C,"dose: 400.0 mg/kg/injection, schedule: Q04DX003 (ip), vehicle: saline",96 % of control
COc1cccc2c1C(=O)c1c(O)c3c(c(O)c1C2=O)C[C@@](O)(C(=O)COC(=O)CCCCC(=O)O)C[C@@H]3OC1CC(NC(=O)C(F)(F)F)C(O)C(C)O1 (some centres undefined),T/C,"dose: 9.38 mg/kg/injection, schedule: Q04DX003 (ip), vehicle: other",118 % of control
same,T/C,"dose: 18.75 mg/kg/injection, schedule: Q04DX003 (ip), vehicle: other",123 % of control
same,T/C,"dose: 18.75 mg/kg/injection, schedule: Q04DX003 (ip), vehicle: saline with Tween-80",119 % of control
same,T/C,"dose: 37.5 mg/kg/injection, schedule: Q04DX003 (ip), vehicle: other",124 % of control
same,T/C,"dose: 75.0 mg/kg/injection, schedule: Q04DX003 (ip), vehicle: other",156 % of control
same,T/C,"dose: 150.0 mg/kg/injection, schedule: Q04DX003 (ip), vehicle: other",194 % of control
C/C(=C\C(=O)c1cccc(F)c1)N1CCN(c2cccc(C(F)(F)F)c2)CC1,T/C,"dose: 50.0 mg/kg/injection, schedule: Q01DX005 (ip), vehicle: Klucel (hydroxypropylcellulose) (HPC)",93 % of control
same,T/C,"dose: 100.0 mg/kg/injection, schedule: Q01DX005 (ip), vehicle: Klucel (hydroxypropylcellulose) (HPC)",94 % of control
O=C1NC(=O)N(c2cccc(Cl)c2)C1=O,T/C,"dose: 50.0 mg/kg/injection, schedule: Q01DX009 (ip), vehicle: Klucel (hydroxypropylcellulose) (HPC)",106 % of control
same,T/C,"dose: 100.0 mg/kg/injection, schedule: Q01DX009 (ip), vehicle: Klucel (hydroxypropylcellulose) (HPC)",109 % of control
same,T/C,"dose: 200.0 mg/kg/injection, schedule: Q01DX009 (ip), vehicle: Klucel (hydroxypropylcellulose) (HPC)",102 % of control
NC(=O)C1c2ccccc2C=Cc2ccccc21,T/C,[1],93 % of control
same,T/C,[2],90 % of control
same,T/C,[3],93 % of control
CCC1OC(=O)CC(O)C(C)C(OC2OC(C)C(O)C(N(C)C)C2O)C(CC=O)CC(C)C(=O)/C=C/C2(C)OC2C1C (centres undefined),T/C,"dose: 9.38 mg/kg/injection, schedule: Q01DX009 (ip), vehicle: Klucel (hydroxypropylcellulose) (HPC)",110 % of control
same,T/C,"dose: 9.4 mg/kg/injection, schedule: Q01DX009 (ip), vehicle: Klucel (hydroxypropylcellulose) (HPC)",95 % of control
same,T/C,"dose: 18.75 mg/kg/injection, schedule: Q01DX009 (ip), vehicle: Klucel (hydroxypropylcellulose) (HPC)",101 % of control and 119 % of control
same,T/C,"dose: 37.5 mg/kg/injection, schedule: Q01DX009 (ip), vehicle: Klucel (hydroxypropylcellulose) (HPC)",103 % of control
same,T/C,"dose: 75.0 mg/kg/injection, schedule: Q01DX009 (ip), vehicle: Klucel (hydroxypropylcellulose) (HPC)",101 % of control and 123 % of control
same,T/C,"dose: 150.0 mg/kg/injection, schedule: Q01DX009 (ip), vehicle: Klucel (hydroxypropylcellulose) (HPC)",124 % of control
CCc1cc(-c2cc(CC)on2)no1,T/C,"dose: 60.0 mg/kg/injection, schedule: Q01DX005 (ip), vehicle: saline",103 % of control
same,T/C,"dose: 120.0 mg/kg/injection, schedule: Q01DX005 (ip), vehicle: saline",100 % of control
same,T/C,"dose: 240.0 mg/kg/injection, schedule: Q01DX005 (ip), vehicle: saline",91 % of control
CC1(C)CC(=O)C=C(Nc2ccc(O)cc2)C1,T/C,"dose: 6.25 mg/kg/injection, schedule: Q01DX005 (ip), vehicle: saline with Tween-80",100 % of control
same,T/C,"dose: 12.5 mg/kg/injection, schedule: Q01DX005 (ip), vehicle: saline with Tween-80",100 % of control
same,T/C,"dose: 25.0 mg/kg/injection, schedule: Q01DX005 (ip), vehicle: saline with Tween-80",96 % of control
same,T/C,[2],86 % of control
COc1ccc(OC)c2c(=O)c(C)c(C(=O)O)[nH]c12,T/C,"dose: 100.0 mg/kg/injection, schedule: Q01DX001 (ip), vehicle: alkali diluted with saline",103 % of control
same,T/C,"dose: 200.0 mg/kg/injection, schedule: Q01DX001 (ip), vehicle: alkali diluted with saline",100 % of control
same,T/C,"dose: 400.0 mg/kg/injection, schedule: Q01DX001 (ip), vehicle: alkali diluted with saline",98 % of control
CCCCCCCCCCCOC(=O)c1ccc(O)cc1,T/C,"dose: 12.5 mg/kg/injection, schedule: Q01DX009 (ip), vehicle: saline with Tween-80",98 % of control
same,T/C,"dose: 25.0 mg/kg/injection, schedule: Q01DX009 (ip), vehicle: saline with Tween-80",102 % of control
same,T/C,"dose: 50.0 mg/kg/injection, schedule: Q01DX009 (ip), vehicle: saline with Tween-80",105 % of control and 106 % of control
same,T/C,"dose: 100.0 mg/kg/injection, schedule: Q01DX009 (ip), vehicle: saline with Tween-80",103 % of control
O=C1C(c2ccccc2)SC(=S)N1c1ccccc1 (centres undefined),T/C,"dose: 50.0 mg/kg/injection, schedule: Q01DX009 (ip), vehicle: saline",105 % of control
same,T/C,"dose: 100.0 mg/kg/injection, schedule: Q01DX009 (ip), vehicle: saline",92 % of control
same,T/C,"dose: 200.0 mg/kg/injection, schedule: Q01DX009 (ip), vehicle: saline",89 % of control
O/N=C(/Cc1nc2cc(Cl)c(Cl)cc2nc1C/C(=N/O)c1cccnc1)c1cccnc1,T/C,[4],102 % of control
same,T/C,[5],107 % of control
same,T/C,[6],107 % of control
O=C1CC2(CCc3ccccc32)C(=O)N1CN1CCOCC1 (centres undefined),T/C,[4],100 % of control
same,T/C,[5],104 % of control
same,T/C,[6],100 % of control
Cc1nc2c(sc3ccccc3n2C)c2nc3c(sc4ccccc4n3C)c(C)c12,T/C,[1],92 % of control
same,T/C,[2],90 % of control
same,T/C,[3],86 % of control
